The kinase profiling compilation of Christmann-Franck et al. (2016)

Assays:
Assay in all cases: radiometric filter-binding kinase assay
SYK (human) = SYK (human) (UniProt P43405)
IGF1R (human) = IGF1R (human) (UniProt P08069)
MAPK13 (human) = MAPK13 (human) (UniProt O15264)
PLK1 (human) = PLK1 (human) (UniProt P53350)
SRC (human) = SRC (human) (UniProt P12931)
HIPK3 (human) = HIPK3 (human) (UniProt Q9H422)
MAP3K7 TAB1 (human) = MAP3K7 TAB1 (human) (UniProt Q15750+O43318)
PAK6 (human) = PAK6 (human) (UniProt Q9NQU5)
YES1 (human) = YES1 (human) (UniProt P07947)
GSK3B (human) = GSK3B (human) (UniProt P49841)
INSR (human) = INSR (human) (UniProt P06213)
EPHB4 (human) = EPHB4 (human) (UniProt P54760)
MARK4 (human) = MARK4 (human) (UniProt Q96L34)
MAPK1 (human) = MAPK1 (human) (UniProt P28482)
PKN2 (human) = PKN2 (human) (UniProt Q16513)
EPHA4 (human) = EPHA4 (human) (UniProt P54764)
MAP3K9 (human) = MAP3K9 (human) (UniProt P80192)
DAPK1 (human) = DAPK1 (human) (UniProt P53355)
EPHB1 (human) = EPHB1 (human) (UniProt P54762)
CSK (human) = CSK (human) (UniProt P41240)
MAP3K1 (human) = MAP3K1 (human) (UniProt Q13233)
PRKCZ (human) = PRKCZ (human) (UniProt Q05513)
LCK (mouse) = settings: accession and sequence are those of the human protein
CAMKK2 (human) = CAMKK2 (human) (UniProt Q96RR4)
HIPK1 (human) = HIPK1 (human) (UniProt Q86Z02)
MAP3K5 (human) = MAP3K5 (human) (UniProt Q99683)
PAK7 (human) = PAK7 (human) (UniProt Q9P286)
ROCK2 (rat) = settings: accession and sequence are those of the human protein
EPHB3 (human) = EPHB3 (human) (UniProt P54753)
[1] = test system: AKT2 (human), P31751 [S474D]
MAPK11 (human) = MAPK11 (human) (UniProt Q15759)
RPS6KA5 KD1 KD2 (human) = RPS6KA5 KD1 KD2 (human) (UniProt O75582)
BRSK2 (human) = BRSK2 (human) (UniProt Q8IWQ3)
HIPK2 (human) = HIPK2 (human) (UniProt Q9H2X6)
CLK2 (human) = CLK2 (human) (UniProt P49760)
PRKAA1 or PRKAA2 (rat) = settings: accession and sequence are those of the human protein

Chain of MARK4 (human) (Q96L34 whole entry, looked up): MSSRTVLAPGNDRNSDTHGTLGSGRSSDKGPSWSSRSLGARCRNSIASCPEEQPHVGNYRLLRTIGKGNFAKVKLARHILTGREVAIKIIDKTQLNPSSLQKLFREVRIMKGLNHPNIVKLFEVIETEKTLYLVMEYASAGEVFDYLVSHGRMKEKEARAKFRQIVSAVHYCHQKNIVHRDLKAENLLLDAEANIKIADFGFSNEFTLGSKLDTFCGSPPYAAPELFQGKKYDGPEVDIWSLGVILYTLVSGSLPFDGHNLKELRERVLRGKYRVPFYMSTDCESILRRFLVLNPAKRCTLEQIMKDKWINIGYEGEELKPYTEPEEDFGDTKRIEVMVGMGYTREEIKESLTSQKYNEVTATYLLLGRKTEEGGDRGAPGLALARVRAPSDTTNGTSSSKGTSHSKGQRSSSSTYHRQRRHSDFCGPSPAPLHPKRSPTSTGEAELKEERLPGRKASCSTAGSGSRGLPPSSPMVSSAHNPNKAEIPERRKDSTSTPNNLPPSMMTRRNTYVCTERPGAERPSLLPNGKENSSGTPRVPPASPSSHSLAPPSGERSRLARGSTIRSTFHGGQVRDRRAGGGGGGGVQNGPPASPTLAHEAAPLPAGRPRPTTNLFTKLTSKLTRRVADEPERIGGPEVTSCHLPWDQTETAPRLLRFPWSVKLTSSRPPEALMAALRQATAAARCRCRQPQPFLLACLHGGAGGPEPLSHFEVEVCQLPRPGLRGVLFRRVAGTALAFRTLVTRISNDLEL
Chain of CLK2 (human) (P49760 whole entry, looked up): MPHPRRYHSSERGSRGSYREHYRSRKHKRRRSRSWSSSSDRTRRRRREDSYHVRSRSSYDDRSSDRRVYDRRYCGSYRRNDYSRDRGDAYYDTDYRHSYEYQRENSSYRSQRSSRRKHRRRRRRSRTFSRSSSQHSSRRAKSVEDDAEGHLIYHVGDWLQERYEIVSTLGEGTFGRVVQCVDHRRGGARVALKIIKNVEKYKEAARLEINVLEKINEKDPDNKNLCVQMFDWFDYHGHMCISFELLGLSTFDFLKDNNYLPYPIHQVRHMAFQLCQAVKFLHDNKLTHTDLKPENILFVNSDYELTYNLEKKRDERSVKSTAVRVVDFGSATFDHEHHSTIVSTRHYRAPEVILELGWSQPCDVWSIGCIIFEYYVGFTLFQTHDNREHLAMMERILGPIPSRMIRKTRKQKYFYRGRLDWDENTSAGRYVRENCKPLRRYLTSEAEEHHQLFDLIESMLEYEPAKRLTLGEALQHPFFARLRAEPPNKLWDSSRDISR
Chain of YES1 (human) (P07947 whole entry, looked up): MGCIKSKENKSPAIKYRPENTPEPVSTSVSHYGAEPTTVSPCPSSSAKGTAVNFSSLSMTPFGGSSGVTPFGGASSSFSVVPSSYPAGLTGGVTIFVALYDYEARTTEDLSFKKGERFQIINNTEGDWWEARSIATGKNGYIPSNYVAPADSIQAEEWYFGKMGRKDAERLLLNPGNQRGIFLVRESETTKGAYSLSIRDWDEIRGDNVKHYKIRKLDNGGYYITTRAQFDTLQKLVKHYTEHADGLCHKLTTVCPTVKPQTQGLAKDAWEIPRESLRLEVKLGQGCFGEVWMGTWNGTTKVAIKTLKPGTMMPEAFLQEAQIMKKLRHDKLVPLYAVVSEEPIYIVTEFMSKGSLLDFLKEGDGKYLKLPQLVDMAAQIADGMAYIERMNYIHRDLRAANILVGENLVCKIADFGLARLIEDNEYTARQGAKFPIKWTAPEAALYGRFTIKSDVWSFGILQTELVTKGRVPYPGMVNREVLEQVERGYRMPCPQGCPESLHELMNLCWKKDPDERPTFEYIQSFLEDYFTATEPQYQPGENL
Chain of MAPK1 (human) (P28482 whole entry, looked up): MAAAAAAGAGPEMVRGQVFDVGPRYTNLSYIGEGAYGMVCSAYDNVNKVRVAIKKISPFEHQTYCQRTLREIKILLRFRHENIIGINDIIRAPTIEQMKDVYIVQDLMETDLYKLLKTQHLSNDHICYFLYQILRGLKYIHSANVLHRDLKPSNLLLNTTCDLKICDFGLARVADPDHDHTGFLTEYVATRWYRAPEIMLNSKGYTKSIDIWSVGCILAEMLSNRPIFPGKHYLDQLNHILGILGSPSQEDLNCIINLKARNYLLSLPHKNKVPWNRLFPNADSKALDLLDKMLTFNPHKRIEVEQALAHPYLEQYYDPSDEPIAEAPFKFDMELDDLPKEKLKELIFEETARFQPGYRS
Chain of PAK6 (human) (Q9NQU5 whole entry, looked up): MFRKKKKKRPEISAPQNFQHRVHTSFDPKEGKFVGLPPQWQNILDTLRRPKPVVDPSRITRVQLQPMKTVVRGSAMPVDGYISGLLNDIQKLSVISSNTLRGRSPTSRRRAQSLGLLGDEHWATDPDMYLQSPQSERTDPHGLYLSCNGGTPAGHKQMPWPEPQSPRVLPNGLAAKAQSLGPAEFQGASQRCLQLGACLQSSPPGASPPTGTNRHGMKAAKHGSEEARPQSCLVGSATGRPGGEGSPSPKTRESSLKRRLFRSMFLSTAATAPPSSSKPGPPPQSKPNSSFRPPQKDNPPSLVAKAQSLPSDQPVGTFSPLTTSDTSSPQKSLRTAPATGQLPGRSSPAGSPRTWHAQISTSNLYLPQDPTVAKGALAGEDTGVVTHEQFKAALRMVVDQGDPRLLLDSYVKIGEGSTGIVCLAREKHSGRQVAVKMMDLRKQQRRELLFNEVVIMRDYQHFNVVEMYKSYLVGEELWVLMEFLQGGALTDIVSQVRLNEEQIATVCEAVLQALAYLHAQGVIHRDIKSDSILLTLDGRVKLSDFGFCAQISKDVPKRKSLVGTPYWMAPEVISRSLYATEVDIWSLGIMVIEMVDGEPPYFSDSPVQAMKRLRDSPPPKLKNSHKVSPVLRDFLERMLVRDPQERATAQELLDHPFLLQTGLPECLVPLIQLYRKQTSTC
Chain of PAK7 (human) (Q9P286 whole entry, looked up): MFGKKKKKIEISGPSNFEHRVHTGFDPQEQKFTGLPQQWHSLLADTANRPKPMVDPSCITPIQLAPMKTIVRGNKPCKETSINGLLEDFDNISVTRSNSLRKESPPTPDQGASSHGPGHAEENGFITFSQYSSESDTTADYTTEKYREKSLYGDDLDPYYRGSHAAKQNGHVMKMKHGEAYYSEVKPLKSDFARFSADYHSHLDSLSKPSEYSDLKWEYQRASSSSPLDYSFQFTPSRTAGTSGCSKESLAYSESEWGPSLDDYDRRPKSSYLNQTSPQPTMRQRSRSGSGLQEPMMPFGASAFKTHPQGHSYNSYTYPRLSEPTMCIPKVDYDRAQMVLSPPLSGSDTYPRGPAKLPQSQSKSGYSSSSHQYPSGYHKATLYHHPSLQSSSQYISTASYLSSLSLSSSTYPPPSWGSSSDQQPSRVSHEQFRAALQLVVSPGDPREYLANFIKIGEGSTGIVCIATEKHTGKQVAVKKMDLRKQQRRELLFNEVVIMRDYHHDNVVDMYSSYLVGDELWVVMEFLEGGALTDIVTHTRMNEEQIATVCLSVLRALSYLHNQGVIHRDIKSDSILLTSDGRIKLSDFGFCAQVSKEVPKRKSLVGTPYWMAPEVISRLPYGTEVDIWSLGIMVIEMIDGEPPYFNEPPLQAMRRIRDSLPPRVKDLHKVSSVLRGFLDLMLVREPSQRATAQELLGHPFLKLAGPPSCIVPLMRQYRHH
Chain of GSK3B (human) (P49841 whole entry, looked up): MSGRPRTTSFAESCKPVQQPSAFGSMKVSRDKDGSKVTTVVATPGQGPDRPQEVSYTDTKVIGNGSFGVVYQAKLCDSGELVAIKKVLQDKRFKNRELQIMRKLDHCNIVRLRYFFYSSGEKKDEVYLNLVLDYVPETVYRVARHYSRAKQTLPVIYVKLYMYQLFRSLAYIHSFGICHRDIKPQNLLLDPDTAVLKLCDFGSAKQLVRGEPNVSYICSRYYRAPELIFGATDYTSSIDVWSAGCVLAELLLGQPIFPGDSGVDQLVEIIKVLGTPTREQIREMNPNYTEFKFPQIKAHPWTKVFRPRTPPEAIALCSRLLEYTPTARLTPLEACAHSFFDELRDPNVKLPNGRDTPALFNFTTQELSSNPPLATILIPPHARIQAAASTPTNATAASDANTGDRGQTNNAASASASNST
Chain of EPHA4 (human) (P54764 whole entry, looked up): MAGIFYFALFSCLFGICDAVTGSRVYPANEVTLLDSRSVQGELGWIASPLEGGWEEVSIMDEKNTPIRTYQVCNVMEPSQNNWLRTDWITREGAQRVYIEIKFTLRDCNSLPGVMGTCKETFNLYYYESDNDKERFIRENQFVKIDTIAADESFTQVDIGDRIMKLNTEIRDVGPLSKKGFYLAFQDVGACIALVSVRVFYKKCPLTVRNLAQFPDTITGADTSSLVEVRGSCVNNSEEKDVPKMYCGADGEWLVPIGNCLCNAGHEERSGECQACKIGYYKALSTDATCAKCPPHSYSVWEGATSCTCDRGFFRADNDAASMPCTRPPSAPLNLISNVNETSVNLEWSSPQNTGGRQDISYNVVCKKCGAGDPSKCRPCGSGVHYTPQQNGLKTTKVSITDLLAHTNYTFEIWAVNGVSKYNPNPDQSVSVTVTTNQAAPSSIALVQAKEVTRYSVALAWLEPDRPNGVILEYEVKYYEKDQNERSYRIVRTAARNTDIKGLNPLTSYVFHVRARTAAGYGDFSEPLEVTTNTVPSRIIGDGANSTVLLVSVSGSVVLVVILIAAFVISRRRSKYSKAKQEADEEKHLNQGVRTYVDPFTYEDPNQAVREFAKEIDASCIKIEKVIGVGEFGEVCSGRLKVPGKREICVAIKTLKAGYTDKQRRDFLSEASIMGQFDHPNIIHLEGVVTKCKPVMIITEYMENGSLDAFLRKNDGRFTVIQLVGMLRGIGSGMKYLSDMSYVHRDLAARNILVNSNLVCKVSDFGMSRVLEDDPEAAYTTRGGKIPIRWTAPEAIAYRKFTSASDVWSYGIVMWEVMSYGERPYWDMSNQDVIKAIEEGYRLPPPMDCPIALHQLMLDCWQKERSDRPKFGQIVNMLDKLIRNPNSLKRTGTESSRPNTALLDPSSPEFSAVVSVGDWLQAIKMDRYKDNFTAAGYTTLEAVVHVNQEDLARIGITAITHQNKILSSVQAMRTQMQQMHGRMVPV

residual activity (SYK (human); compound 1.0 µM): 88%
residual activity (SYK (human); compound 10.0 µM): 81%
residual activity (IGF1R (human); compound 1.0 µM): 86%
residual activity (IGF1R (human); compound 10.0 µM): 35%
residual activity (MAPK13 (human); compound 1.0 µM): 85%
residual activity (MAPK13 (human); compound 10.0 µM): 68%
residual activity (PLK1 (human); compound 1.0 µM): 83%
residual activity (PLK1 (human); compound 10.0 µM): 87%
residual activity (SRC (human); compound 1.0 µM): 89%
residual activity (SRC (human); compound 10.0 µM): 68%
residual activity (HIPK3 (human); compound 1.0 µM): 129%
residual activity (HIPK3 (human); compound 10.0 µM): 79%
residual activity (MAP3K7 TAB1 (human); compound 1.0 µM): 73%
residual activity (MAP3K7 TAB1 (human); compound 10.0 µM): 39%
residual activity (PAK6 (human); compound 1.0 µM): 89%
residual activity (PAK6 (human); compound 10.0 µM): 83%
residual activity (YES1 (human); compound 1.0 µM): 79%
residual activity (YES1 (human); compound 10.0 µM): 38%
residual activity (GSK3B (human); compound 1.0 µM): 80%
residual activity (GSK3B (human); compound 10.0 µM): 73%
residual activity (INSR (human); compound 1.0 µM): 51%
residual activity (INSR (human); compound 10.0 µM): 33%
residual activity (EPHB4 (human); compound 1.0 µM): 90%
residual activity (EPHB4 (human); compound 10.0 µM): 86%
residual activity (MARK4 (human); compound 1.0 µM): 115%
residual activity (MARK4 (human); compound 10.0 µM): 102%
residual activity (MAPK1 (human); compound 1.0 µM): 101%
residual activity (MAPK1 (human); compound 10.0 µM): 76%
residual activity (PKN2 (human); compound 1.0 µM): 94%
residual activity (PKN2 (human); compound 10.0 µM): 53%
residual activity (EPHA4 (human); compound 1.0 µM): 107%
residual activity (EPHA4 (human); compound 10.0 µM): 84%
residual activity (MAP3K9 (human); compound 1.0 µM): 73%
residual activity (MAP3K9 (human); compound 10.0 µM): 66%
residual activity (DAPK1 (human); compound 1.0 µM): 68%
residual activity (DAPK1 (human); compound 10.0 µM): 46%
residual activity (EPHB1 (human); compound 1.0 µM): 96%
residual activity (EPHB1 (human); compound 10.0 µM): 100%
residual activity (CSK (human); compound 1.0 µM): 83%
residual activity (CSK (human); compound 10.0 µM): 74%
residual activity (MAP3K1 (human); compound 1.0 µM): 62%
residual activity (MAP3K1 (human); compound 10.0 µM): 50%
residual activity (PRKCZ (human); compound 1.0 µM): 88%
residual activity (PRKCZ (human); compound 10.0 µM): 76%
residual activity (LCK (mouse); compound 1.0 µM): 82%
residual activity (LCK (mouse); compound 10.0 µM): 33%
residual activity (CAMKK2 (human); compound 1.0 µM): 106%
residual activity (CAMKK2 (human); compound 10.0 µM): 57%
residual activity (HIPK1 (human); compound 1.0 µM): 113%
residual activity (HIPK1 (human); compound 10.0 µM): 62%
residual activity (MAP3K5 (human); compound 1.0 µM): 102%
residual activity (MAP3K5 (human); compound 10.0 µM): 83%
residual activity (PAK7 (human); compound 1.0 µM): 84%
residual activity (PAK7 (human); compound 10.0 µM): 75%
residual activity (ROCK2 (rat); compound 1.0 µM): 88%
residual activity (ROCK2 (rat); compound 10.0 µM): 61%
residual activity (EPHB3 (human); compound 1.0 µM): 94%
residual activity (EPHB3 (human); compound 10.0 µM): 74%
residual activity ([1]; compound 1.0 µM): 85%
residual activity ([1]; compound 10.0 µM): 62%
residual activity (MAPK11 (human); compound 1.0 µM): 88%
residual activity (MAPK11 (human); compound 10.0 µM): 71%
residual activity (RPS6KA5 KD1 KD2 (human); compound 1.0 µM): 105%
residual activity (RPS6KA5 KD1 KD2 (human); compound 10.0 µM): 55%
residual activity (BRSK2 (human); compound 1.0 µM): 92%
residual activity (BRSK2 (human); compound 10.0 µM): 46%
residual activity (HIPK2 (human); compound 1.0 µM): 80%
residual activity (HIPK2 (human); compound 10.0 µM): 59%
residual activity (CLK2 (human); compound 1.0 µM): 43%
residual activity (CLK2 (human); compound 10.0 µM): 7%
residual activity (PRKAA1 or PRKAA2 (rat); compound 1.0 µM): 85%
residual activity (PRKAA1 or PRKAA2 (rat); compound 10.0 µM): 50%
Structure (SMILES): N#Cc1c(C2CCNCC2)cc(-c2c(O)cccc2OCC2CC2)nc1N
